Assay results published in paper PMC9687610, “Adenosine-Mimicking Derivatives of 3-Aminopyrazine-2-Carboxamide: Towards Inhibitors of Prolyl-tRNA Synthetase with Antimycobacterial Activity” (Biomolecules, 2022).
pIC50: −log10 of the molar value. Values after ≈ are worked out from the molar mass of the structure shown.

Legend:
[1] = tested on: Mycobacterium tuberculosis H37Ra ITM-M006710 (ATCC 9431); experiment: Microplate Alamar Blue Assay (MABA), Mtb H37Ra; assay type: cell-based; conditions: for MIC: Mycobacterium tuberculosis, 120 h, pH 6.6, MABA, Middlebrook 7H9 broth pH 6.6, resazurin after 120 h, read-out: Mtb H37Ra MIC; for antimycobacterial activity (in words): activity refers to Mtb H37Ra from the primary screening if not otherwise stated
[2] = tested on: Mycobacterium smegmatis DSM 43465 (ATCC 607); experiment: Microplate Alamar Blue Assay (MABA), M. smegmatis; assay type: cell-based; conditions: Mycolicibacterium smegmatis; MABA, resazurin after 48 h; read-out: M. smegmatis MIC
[3] = tested on: M. aurum DSM 43999 (ATCC 23366); experiment: Microplate Alamar Blue Assay (MABA), M. aurum; assay type: cell-based; conditions: Mycolicibacterium aurum; MABA, resazurin after 72 h; read-out: M. aurum MIC
[4] = tested on: Staphylococcus aureus subsp. aureus CCM 4223 (ATCC 29213); experiment: Antibacterial microdilution broth (EUCAST), SA; assay type: cell-based; conditions: Staphylococcus aureus; read after 24 h; read-out: SA MIC
[5] = tested on: Staphylococcus aureus subsp. aureus methicillin-resistant (MRSA) CCM 4750 (ATCC 43300); experiment: Antibacterial microdilution broth (EUCAST), MRSA; assay type: cell-based; conditions: Staphylococcus aureus; read after 24 h; read-out: MRSA MIC
[6] = tested on: Staphylococcus epidermidis CCM 4418 (ATCC 12228); experiment: Antibacterial microdilution broth (EUCAST), SE; assay type: cell-based; conditions: read after 24 h, read-out: SE MIC
[7] = tested on: Enterococcus faecalis CCM 4224 (ATCC 29212); experiment: Antibacterial microdilution broth (EUCAST), EF; assay type: cell-based; conditions: Enterococcus faecalis; read after 24 h; read-out: EF MIC
[8] = tested on: Escherichia coli CCM 3954 (ATCC 25922); experiment: Antibacterial microdilution broth (EUCAST), EC; assay type: cell-based; conditions: Escherichia coli; read after 24 h; read-out: EC MIC
[9] = tested on: Acinetobacter baumannii DSM 30007 (ATCC 19606); experiment: Antibacterial microdilution broth (EUCAST), ACI; assay type: cell-based; conditions: Acinetobacter baumannii; read after 24 h; read-out: ACI MIC
[10] = tested on: Pseudomonas aeruginosa CCM 3955 (ATCC 27853); experiment: Antibacterial microdilution broth (EUCAST), PA; assay type: cell-based; conditions: Pseudomonas aeruginosa; read after 24 h; read-out: PA MIC
[11] = tested on: Candida albicans CCM 8320 (ATCC 24433); experiment: Antifungal microdilution broth (EUCAST), CA; assay type: cell-based; conditions: Candida albicans; read after 24 h; read-out: CA MIC
[12] = tested on: Candida krusei CCM 8271 (ATCC 6258); experiment: Antifungal microdilution broth (EUCAST), CK; assay type: cell-based; conditions: Pichia kudriavzevii; read after 24 h; read-out: CK MIC
[13] = tested on: Candida parapsilosis CCM 8260 (ATCC 22019); experiment: Antifungal microdilution broth (EUCAST), CP; assay type: cell-based; conditions: Lodderomyces parapsilosis; read after 24 h; read-out: CP MIC
[14] = tested on: Candida tropicalis CCM 8264 (ATCC 750); experiment: Antifungal microdilution broth (EUCAST), CT; assay type: cell-based; conditions: Candida tropicalis; read after 24 h; read-out: CT MIC
[15] = tested on: Aspergillus fumigatus ATCC 204305; experiment: Antifungal microdilution broth (EUCAST), AF; assay type: cell-based; conditions: Aspergillus fumigatus, ATCC204305; read after 24 h; read-out: AF MIC
[16] = tested on: Aspergillus flavus CCM 8363; experiment: Antifungal microdilution broth (EUCAST), AFla; assay type: cell-based; conditions: Aspergillus flavus, CCM8363; read after 24 h; read-out: AFla MIC
[17] = tested on: Lichtheimia corymbifera CCM 8077; experiment: Antifungal microdilution broth (EUCAST), LC; assay type: cell-based; conditions: Lichtheimia corymbifera, CCM8077; read after 24 h; read-out: LC MIC
[18] = tested on: Trichophyton interdigitale CCM 8377 (ATCC 9533); experiment: Antifungal microdilution broth (EUCAST), TI; assay type: cell-based; conditions: Trichophyton interdigitale, 72 h, read-out: TI MIC
[19] = tested on: HepG2 human hepatocellular carcinoma cells; experiment: In vitro HepG2 cytotoxicity (CellTiter 96); conditions: Homo sapiens, HepG2, 24 h, read-out: HepG2 IC50, 24 h incubation; * limit = highest evaluated concentration (precipitation in medium); ** over the 1000 µM limit
[20] = tested on: Klebsiella pneumoniae CCM 4415 (ATCC 10031); experiment: Antibacterial microdilution broth (EUCAST), KP; conditions: read after 24 h

Row | SMILES | MIC [1] | MIC [2] | MIC [3] | MIC [4] | MIC [5] | MIC [6] | MIC [7] | MIC [8] | MIC [9] | MIC [10] | MIC [11] | MIC [12] | MIC [13] | MIC [14] | MIC [15] | MIC [16] | MIC [17] | MIC [18] | melting point | pIC50 [19] | also measured
1 | CNC(=O)c1nccnc1NC(=O)c1ccc(Br)cc1 [Compound 35] | ≥ 500 mg/L | ≥ 500 mg/L | ≥ 500 mg/L | > 125 µM | > 125 µM | > 125 µM | > 125 µM | > 125 µM | > 125 µM | > 125 µM | > 125 µM | > 125 µM | > 125 µM | > 125 µM | > 125 µM | > 125 µM | > 125 µM | > 125 µM | 202 to 202.5 °C | < 4.30 | KP MIC [20]: > 125 µM
2 | Cc1ccc(C(=O)Nc2nccnc2C(=O)N(C)C)cc1 [Compound 36] | ≥ 500 mg/L | ≥ 500 mg/L | ≥ 500 mg/L | > 125 µM | > 125 µM | > 125 µM | > 125 µM | > 125 µM | > 125 µM | > 125 µM | > 125 µM | > 125 µM | > 125 µM | > 125 µM | > 125 µM | > 125 µM | > 125 µM | > 125 µM | 188.7 to 189.5 °C | < 3.00 | antimycobacterial activity (in words) [1]: inactive; KP MIC [20]: > 125 µM
3 | CN(C)C(=O)c1nccnc1NC(=O)c1ccc(Cl)cc1 [Compound 37] | ≥ 500 mg/L | ≥ 500 mg/L | ≥ 500 mg/L | > 500 µM | > 500 µM | > 500 µM | > 500 µM | > 500 µM | > 500 µM | > 500 µM | > 500 µM | > 500 µM | > 500 µM | > 500 µM | > 500 µM | > 500 µM | > 500 µM | > 500 µM | 184.1 to 185.3 °C | < 3.00 | antimycobacterial activity (in words) [1]: inactive; KP MIC [20]: > 500 µM
4 | O=c1[nH]c(-c2ccccc2)nc2nccnc12 [Compound 39] | 62.5 mg/L (≈ 279 µM) | ≥ 500 mg/L | 125 mg/L (≈ 557 µM) | > 125 µM | > 125 µM | > 125 µM | > 125 µM | > 125 µM | > 125 µM | > 125 µM | > 125 µM | > 125 µM | > 125 µM | > 125 µM | > 125 µM | > 125 µM | > 125 µM | > 125 µM | 283.5 to 284.5 °C | < 3.00 | KP MIC [20]: > 125 µM
5 | Cc1ccc(-c2nc3nccnc3c(=O)[nH]2)cc1 [Compound 40] | 31.2 mg/L (≈ 131 µM) | ≥ 250 mg/L | 250 mg/L (≈ 1050 µM) | > 125 µM | > 125 µM | > 125 µM | > 125 µM | > 125 µM | > 125 µM | > 125 µM | > 125 µM | > 125 µM | > 125 µM | > 125 µM | > 125 µM | > 125 µM | > 125 µM | > 125 µM | 300.5 to 302 °C | < 3.00 | KP MIC [20]: > 125 µM
6 | O=c1[nH]c(-c2ccc(F)cc2)nc2nccnc12 [Compound 41] | ≥ 500 mg/L | ≥ 500 mg/L | ≥ 500 mg/L | > 125 µM | > 125 µM | > 125 µM | > 125 µM | > 125 µM | > 125 µM | > 125 µM | > 125 µM | > 125 µM | > 125 µM | > 125 µM | > 125 µM | > 125 µM | > 125 µM | > 125 µM | 277 to 279.5 °C | < 3.00 | KP MIC [20]: > 125 µM
